From ChEMBL document CHEMBL1136018, “Synthesis of bis-spermine dimers that are potent polyamine transport inhibitors” (Bioorg Med Chem Lett, 2002) come the findings set out here.

The test system of assay [1] is MDA-MB-231. Nature of the assay: Effective concentration of compound with DFMO tested in vitro for ability to inhibit polyamine transport and growth of MDA-MB-231 breast carcinoma cell line. Conditions: Homo sapiens. It is filed as functional, cell-based.
Assay [2] in a line: Inhibition of SPD uptake by polyamine transporter of MDA-MB-231 breast carcinoma cells. It is filed as cell-based.
Assay [3] concerns MDA-MB-231. Description: Effective concentration of compound without DFMO tested in vitro for ability to inhibit polyamine transport and growth of MDA-MB-231 breast carcinoma cell line; Cytotoxic. The class given is functional, cell-based. Conditions: Homo sapiens.
Assay [4] relates to MDA-MB-231. Nature of the assay: Effective concentration of compound with DFMO tested in vitro for ability to inhibit polyamine transport and growth of MDA-MB-231 breast carcinoma cell line; Cytotoxic. The class given is functional, cell-based. Conditions: Homo sapiens.
Assay [5] concerns MDA-MB-231. Description: Michaelis-Menten constant of compound was determined at MDA-MB-231 cell line mediated by polyamine transporter. Conditions: Homo sapiens. The class given is cell-based.

A word on the EC50: it is the midpoint of the concentration-response curve. Read a low EC50 as greater potency. In general, Ki refers to a measure of affinity in units of concentration, obtained from inhibition or displacement. Lower therefore signals a stronger hold on the target. Compound `NCCCNCCCCNCCCNC(=O)CCC(=O)NCCCNCCCCNCCCN` showed an EC50 in assay [1] of 2 µM. For the same compound, the Ki in assay [2] is 0.03 µM. On the same counts, the results for `NCCCNCCCCNCCCNC(=O)CCCC(=O)NCCCNCCCCNCCCN` are 1.6 µM and 0.06 µM. On to `NCCCNCCCCNCCCNC(=O)CCCCCCCCCCC(=O)NCCCNCCCCNCCCN`, for which the EC50 in assay [1] came to 8 µM; in assay [3] it was 53 µM. Besides, the affinity in assay [2] corresponds to a Ki of 0.03 µM. `CC(=O)NCCCNCCCCNCCCN` came in with a concentration giving a half-maximal response (EC50) in assay [1] of over 1000 µM. In assay [2], this compound returned a Ki of 0.18 µM. Regarding `CCCCCCC(=O)NCCCNCCCCNCCCN`, the concentration for a half-maximal effect (EC50) in assay [4] turned out to be 63 µM. The same compound had a Ki in assay [2] of 0.28 µM. The term Km denotes the substrate concentration at which the rate is half of its maximum. In the case of `NCCCCN`, the Michaelis-Menten constant (Km) in assay [5] worked out at 1.28 µM. Take `NCCCNCCCCNCCCNC(=O)CCCCCCCCC(=O)NCCCNCCCCNCCCN`: the concentration for a half-maximal effect (EC50) amounted to 9 µM in assay [1] and 240 µM in assay [3]. Besides, in assay [2], the inhibition constant (Ki) was 0.08 µM.

`NCCCNCCCCNCCCNS(=O)(=O)c1ccc2cc(S(=O)(=O)NCCCNCCCCNCCCN)ccc2c1` displayed a concentration giving a half-maximal response (EC50) in assay [1] of 230 µM. For the same compound, the affinity in assay [2], expressed as Ki, was 0.06 µM.

With `NCCCCNCCCN`, the Km in assay [5] was 0.11 µM. Consider `NCCCNCCCCNCCCNC(=O)CCCCCCC(=O)NCCCNCCCCNCCCN`, for which the midpoint of the response in assay [1], the EC50, lay at 3.7 µM. For the same compound, the Ki in assay [2] was 0.06 µM. In the case of `NCCCNCCCCNCCCN`, the Km in assay [5] worked out at 2 µM. For the compound `NCCCNCCCCNCCCNC(=O)CCCCCC(=O)NCCCNCCCCNCCCN`, the EC50 in assay [1] stood at 6 µM. This compound also had an inhibition constant (Ki) in assay [2] of 0.04 µM. As for `NCCCNCCCCNCCCNC(=O)CCCCCCCC(=O)NCCCNCCCCNCCCN`, the response in assay [1] was half-maximal at 3 µM (EC50). In assay [2], this compound came in with a Ki of 0.07 µM. For the compound `NCCCNCCCCNCCCNC(=O)CC12CC3CC(C1)CC(CC(=O)NCCCNCCCCNCCCN)(C3)C2`, the EC50 in assay [1] is over 300 µM. Besides, in assay [2], the affinity, expressed as Ki, was 0.06 µM. Take `NCCCNCCCCNCCCNC(=O)CCCCC(=O)NCCCNCCCCNCCCN`: the EC50 in assay [1] stood at 2.2 µM. The affinity in assay [2] corresponds to a Ki of 0.07 µM.
